Measured values: ChEMBL document CHEMBL1208700, “Anibamine, a natural product CCR5 antagonist, as a novel lead for the development of anti-prostate cancer agents” (Bioorg Med Chem Lett, 2010)
The source made the active and inactive calls. The rule behind the calls is not given here.

Assays:
DU-145 = test: Antiproliferative activity against human DU145 cells after 72 hrs by WST-1 assay; assay type: functional, cell-based
[1] = Reduction of vimentin gene expression in human M12 cells at 1 uM after 8 days by confocal immunofluorescence microscopy; assay type: functional, cell-based
[2] = Inhibition of human M12 cells adhesion at 10 to 100 nM after 24 hrs; assay type: functional
M12 [3] = test: Reversal of 3D IrECM gel-induced morphological changes in human M12 cells at 500 nM to 1 uM after 5 to 8 days by light microscopic analysis; assay type: functional, cell-based
[4] = Inhibition of human M12 cells invasion at 50 to 500 nM after 16 hrs; assay type: functional
M12 [5] = test: Antiproliferative activity against human M12 cells after 72 hrs by WST-1 assay; assay type: functional, cell-based
[6] = Antitumor activity against human M12 cells xenografted in athymic nude mouse assessed as reduction of tumor size at 0.3 mg/kg, iv administered once every fourth day for 16 days; assay type: functional; parameters: scale not given: the % may be the effect or the level left
M12 [7] = test: Inhibition of human M12 cells invasion after 16 hrs; assay type: functional, cell-based
M12 [8] = test: Reversal of disorganized beta-1 integrin in human M12 cells at 1 uM after 8 days by confocal immunofluorescence microscopy; assay type: functional, cell-based
M12 [9] = test: Reversal of disorganized alpha6 integrin in human M12 cells at 1 uM after 8 days by confocal immunofluorescence microscopy; assay type: functional, cell-based
[10] = Toxicity in sheep RBC assessed as hemolysis at 1 uM after 60 mins; assay type: cell-based, Ovis aries; conditions: erythrocyte, 1 h
PC-3 = test: Antiproliferative activity against human PC3 cells after 72 hrs by WST-1 assay; assay type: functional, cell-based

For `CCCCCCCC/C=C\c1c(C)c(/C=C\CCCCCCCC)c2[n+](c1C)CCC2.O=C([O-])C(F)(F)F` [ANIBAMINE], the Activity (DU-145) was “Dose-dependent effect”, the Activity [1] was “Active” and the “inhibition (INH)” value [2] was 26%. For the same compound, the Activity (M12 [3]) was “Active”, the “inhibition (INH)” value [4] was 42% and the Activity (M12 [5]) was “Dose-dependent effect”. For the same compound, the Activity [6] was 50%, the inhibition (M12 [7]) was “Dose-dependent effect” and the Activity (M12 [8]) was “Active”. For the same compound, the Activity (M12 [9]) was “Active”, the Activity [10] was “Non-toxic” and the Activity (PC-3) was “Dose-dependent effect”.
